The values below come from patent US9051310B2, “Nicotinamide derivative or salt thereof” (FUJIFILM Corporation, priority 2011, dated 2015).

The subject of assay [1] is THP-1 cells (phagocytosis of opsonized Escherichia coli). The assay is described as follows: Antibody-dependent phagocytosis assay. In kind it is cell-based. The note with it: Homo sapiens; IFNγ differentiated THP-1 cells, opsonized pHrodo Escherichia coli, 3 hours; read-out: IC50 upon phagocytosis inhibition. On the procedure:
THP-1 cells (2×10^5 cells/ml), which were human monocytoid cells, were cultured in the presence of 10 ng/ml IFNγ for 2 days, and they were induced to differentiate into macrophage-like cells. The differentiation-induced THP-1 cells were recovered, and the cells (5×10^4 cells/well) were then allowed to react with a predetermined concentration of test compound at room temperature for 30 minutes. Thereafter, Escherichia coli (Life Technologies) labeled with a pH-sensitive dye (pHrodo) was subjected to opsonization using an anti-Escherichia coli antibody (Life Technologies). Then, the resultant was added to the THP-1 cells obtained above, followed by incubation at 37° C. for 3 hours. Opsonized Escherichia coli and cell-permeable fluorescent dye (Calcein AM) were simultaneously added thereto, followed by quantitative determination of phagocytosis of opsonized Escherichia coli in viable cells using an IN Cell Analyzer.

Assay [2] deals with T1, glutathione S-transferase (GST)-linked full-length human Syk protein (Homo sapiens, UniProt P43405).
T1 construct: glutathione S-transferase (GST)-linked full-length human Syk protein; purchased Carna Biosciences; host or cells: Baculovirus expression system
The assay is described as follows: Syk enzyme assay. In kind it is biochemical. The following applies: 0.83 nM Syk, time-resolved fluorescence; read-out: IC50 of Syk-inhibitory activity. The method, boiled down: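 Phosphotyrosine on a biotin-peptide substrate (0.5 μM) was read by time-resolved fluorescence at 615 and 665 nm with Eu-anti-pTyr antibody and APC-streptavidin after 1 h EDTA stop.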

Assay [3] relates to THP-1 cells (TNFα secretion on human IgG-coated plate). The assay is described as follows: TNFα generation assay. In kind it is cell-based. The note with it: IFN-γ differentiated THP-1 cells, 7 hours, AlphaLISA, read-out: IC50 of TNFα generation inhibitory activity. The method, boiled down:
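Secreted TNFα was measured by AlphaLISA after 7 h of culture on human IgG-coated wells (coating at 10 μg/ml), with 5×10^4 cells/well. Before plating, the cells had been treated with compound for 30 min at room temperature. The cells were macrophage-like THP-1, produced by a 2-day exposure to 10 ng/ml IFN-γ.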
(Alpha assays give light when donor and acceptor beads are brought close together.)

As to `CCCC[C@@H](Nc1nc(Nc2cnc3c(c2)c(N(C)C)nn3C)c(C(N)=O)cc1F)[C@H](C)N` [Example 2-291, 6-(((2S,3R)-2-aminoheptan-3-yl)amino)-2-((3-(dimethylamino)-1-methyl-1H-pyrazolo[3,4-b]pyridin-5-yl)amino)-5-fluoronicotinamide], the results for the IC50 in assay [1] and in assay [2] were 1000 to 3000 nM and 10 to 50 nM, respectively.
In the same order, the values of `COCCn1nc(OC(F)F)c2cc(Nc3nc(N[C@H](COC)[C@H](C)N)c(F)cc3C(N)=O)ccc21` [Example 2-178, 6-(((2S,3S)-3-amino-1-methoxybutan-2-yl)amino)-2-((3-(difluoromethoxy)-1-(2-methoxyethyl)-1H-indazol-5-yl)amino)-5-fluoronicotinamide] are 1000 to 3000 nM and below 10 nM.
Take `COc1ncc(Nc2nc(N[C@H](C3CC3)[C@H](C)N)c(F)cc2C(N)=O)cc1-n1nccn1` [Example 2-113, 6-(((1R,2S)-2-amino-1-cyclopropylpropyl)amino)-5-fluoro-2-((6-methoxy-5-(2H-1,2,3-triazol-2-yl)pyridin-3-yl)amino)nicotinamide]: the IC50 in assay [1] fell in the range of 1000 to 3000 nM; in assay [2] it was 10 to 50 nM.
The matching figures for `CCC[C@@H](Nc1nc(Nc2cncc3c2cnn3CC(F)F)c(C(N)=O)cc1F)[C@H](C)N` [Example 2-397, 6-(((2S,3R)-2-aminohexan-3-yl)amino)-2-((1-(2,2-difluoroethyl)-1H-pyrazolo[3,4-c]pyridin-4-yl)amino)-5-fluoronicotinamide]: 1000 to 3000 nM and below 10 nM.
In the same order, the values of `NC[C@@H](Cc1ccccc1)Nc1nc(Nc2cnc(N3CCOCC3)c(F)c2)c(C(N)=O)cc1F` [Example 2-365, (R)-6-((1-amino-3-phenylpropan-2-yl)amino)-5-fluoro-2-((5-fluoro-6-morpholinopyridin-3-yl)amino)nicotinamide] are below 1000 nM and 50 to 100 nM.
In the same order, the values of `COCCOc1ncc(Nc2nc(N[C@H](C3CCC3)[C@H](C)N)c(F)cc2C(N)=O)cc1F` [Example 2-116, 6-(((1R,2S)-2-amino-1-cyclobutylpropyl)amino)-5-fluoro-2-((5-fluoro-6-(2-methoxyethoxy)pyridin-3-yl)amino)nicotinamide] are 1000 to 3000 nM and 10 to 50 nM.
`Cn1nc(OC(F)F)c2cc(Nc3nc(N[C@@H]4CCCC[C@@H]4N)c(F)cc3C(N)=O)ccc21` [Example 2-169, 6-(((1R,2S)-2-aminocyclohexyl)amino)-2-((3-(difluoromethoxy)-1-methyl-1H-indazol-5-yl)amino)-5-fluoronicotinamide]: the IC50 was below 1000 nM in assay [1] and below 10 nM in assay [2].
The matching figures for `CCn1ncc2c(Nc3nc(N[C@H](COC)[C@H](C)N)c(F)cc3C(N)=O)cncc21` [Example 2-323, 6-(((2S,3S)-3-amino-1-methoxybutan-2-yl)amino)-2-((1-ethyl-1H-pyrazolo[3,4-c]pyridin-4-yl)amino)-5-fluoronicotinamide]: 1000 to 3000 nM and 10 to 50 nM.
The matching figures for `COc1ncc(Nc2nc(N[C@H](C3CCC3)[C@H](C)N)c(F)cc2C(N)=O)cc1-n1ccnn1` [Example 2-166, 6-(((1R,2S)-2-amino-1-cyclobutylpropyl)amino)-5-fluoro-2-((6-methoxy-5-(1H-1,2,3-triazol-1-yl)pyridin-3-yl)amino)nicotinamide]: 1000 to 3000 nM and 10 to 50 nM.
`CN(C)c1c2cc(Nc3nc(N[C@@H]4CCCC[C@@H]4N)c(F)cc3C(N)=O)ccc2nn1C` [Example 2-13, 6-(((1R,2S)-2-aminocyclohexyl)amino)-2-((3-(dimethylamino)-2-methyl-2H-indazol-5-yl)amino)-5-fluoronicotinamide]: the figures for the IC50 in assay [1] and in assay [2] were below 1000 nM and below 10 nM, respectively.
Consider `CC[C@@H](Nc1nc(Nc2ccc3onc(OC)c3c2)c(C(N)=O)cc1F)[C@H](C)N` [Example 2-57, 6-(((2S,3R)-2-aminopentan-3-yl)amino)-5-fluoro-2-((3-methoxybenzo[d]isoxazol-5-yl)amino)nicotinamide], for which the IC50 in assay [3] was 65 to 130 nM; in assay [2], below 10 nM.
In the same order, the values of `COc1nn(C)c2ncc(Nc3nc(N[C@H](CC(C)C)[C@H](C)N)c(F)cc3C(N)=O)cc12` [Example 2-255, 6-(((2S,3R)-2-amino-5-methylhexan-3-yl)amino)-5-fluoro-2-((3-methoxy-1-methyl-1H-pyrazolo[3,4-b]pyridin-5-yl)amino)nicotinamide] are 130 to 200 nM and below 10 nM.
In the same order, the values of `CCOC[C@@H](Nc1nc(Nc2cccc3c2cnn3CC)c(C(N)=O)cc1F)[C@H](C)N` [Example 2-180, 6-(((2S,3S)-3-amino-1-ethoxybutan-2-yl)amino)-2-((1-ethyl-1H-indazol-4-yl)amino)-5-fluoronicotinamide] are 130 to 200 nM and 10 to 50 nM.
The matching figures for `COCCn1ncc2c(Nc3nc(N[C@H](C4CC4)[C@H](C)N)c(F)cc3C(N)=O)cc(F)cc21` [Example 2-377, 6-(((1R,2S)-2-amino-1-cyclopropylpropyl)amino)-5-fluoro-2-((6-fluoro-1-(2-methoxyethyl)-1H-indazol-4-yl)amino)nicotinamide]: 65 to 130 nM and below 10 nM.
Consider `COc1ncc(Nc2nc(N[C@H](CC(C)C)[C@H](C)N)c(F)cc2C(N)=O)cc1-n1ccnn1` [Example 2-141, 6-(((2S,3R)-2-amino-5-methylhexan-3-yl)amino)-5-fluoro-2-((6-methoxy-5-(1H-1,2,3-triazol-1-yl)pyridin-3-yl)amino)nicotinamide], for which the IC50 in assay [3] lay in the range of 130 to 200 nM; in assay [2] it was 10 to 50 nM.
The matching figures for `CCC[C@@H](Nc1nc(Nc2ccc3c(c2)c(C)nn3CC(F)F)c(C(N)=O)cc1F)[C@H](C)N` [Example 2-138]: below 65 nM and below 10 nM.
In the same order, the values of `CC[C@H](N)[C@@H](C)Nc1nc(Nc2cncc(C3CC3)c2)c(C(N)=O)cc1F` [Example 2-41, 6-(((2R,3S)-3-aminopentan-2-yl)amino)-2-((5-cyclopropylpyridin-3-yl)amino)-5-fluoronicotinamide] are 65 to 130 nM and below 10 nM.
In the same order, the values of `NC(=O)c1cc(F)c(N[C@@H]2CCCC[C@@H]2N)nc1Nc1cccc2c1cnn2CC(F)F` [Example 2-20, 6-(((1R,2S)-2-aminocyclohexyl)amino)-2-((1-(2,2-difluoroethyl)-1H-indazol-4-yl)amino)-5-fluoronicotinamide] are 65 to 130 nM and below 10 nM.
For `CCn1ncc2cc(Nc3nc(N[C@H](c4cccs4)[C@H](C)N)c(F)cc3C(N)=O)ccc21` [Example 2-416], the IC50 in assay [3] is below 65 nM; in assay [2], below 10 nM.
The matching figures for `CC[C@@H](Nc1nc(Nc2cc(F)c3c(c2)c(OC)nn3C)c(C(N)=O)cc1F)[C@H](C)N` [Example 2-152, 6-(((2S,3R)-2-aminopentan-3-yl)amino)-5-fluoro-2-((7-fluoro-3-methoxy-1-methyl-1H-indazol-5-yl)amino)nicotinamide]: 130 to 200 nM and below 10 nM.
The matching figures for `COc1nn(C)c2ccc(Nc3nc(N[C@@H](CN)CC4CC4)c(F)cc3C(N)=O)cc12` [Example 2-79, (R)-6-((1-amino-3-cyclopropylpropan-2-yl)amino)-5-fluoro-2-((3-methoxy-1-methyl-1H-indazol-5-yl)amino)nicotinamide]: 130 to 200 nM and below 10 nM.
In the same order, the values of `NC(=O)c1cc(F)c(N[C@@H]2CCCC[C@@H]2N)nc1Nc1cccc(-n2nccn2)c1` [Example 2-437, 2-((3-(2H-1,2,3-triazol-2-yl)phenyl)amino)-6-(((1R,2S)-2-aminocyclohexyl)amino)-5-fluoronicotinamide] are 65 to 130 nM and below 10 nM.
Regarding `NC[C@@H](Cc1ccccc1)Nc1nc(Nc2ccc(N3CCOCC3)nc2)c(C(N)=O)cc1F` [Example 2-420, (R)-6-((1-amino-3-phenylpropan-2-yl)amino)-5-fluoro-2-((6-morpholinopyridin-3-yl)amino)nicotinamide], in assay [1], the IC50 is below 1000 nM.
Consider `C[C@H](N)[C@H](Nc1nc(Nc2cncc(-n3cccn3)c2)c(C(N)=O)cc1F)C1CCC1` [Example 2-24, 2-((5-(1H-pyrazol-1-yl)pyridin-3-yl)amino)-6-(((1R,2S)-2-amino-1-cyclobutylpropyl)amino)-5-fluoronicotinamide], for which the IC50 in assay [3] is 130 to 200 nM; in assay [2], below 10 nM.
In the same order, the values of `CC[C@@H](Nc1nc(Nc2ccc3c(c2)c(C)nn3CCOC)c(C(N)=O)cc1F)[C@H](C)N` [Example 2-131, 6-(((2S,3R)-2-aminopentan-3-yl)amino)-5-fluoro-2-((1-(2-methoxyethyl)-3-methyl-1H-indazol-5-yl)amino)nicotinamide] are 65 to 130 nM and below 10 nM.
